PMC7782793, “Hydroxamic acid-modified peptide microarrays for profiling isozyme-selective interactions and inhibition of histone deacetylases” (Nature Communications, 2021)
Where “and” joins values, the source holds several entries; their conditions need not be identical. Equal values may be shown once. Marks after values point to notes of the source that are not given here. Non-standard residues stand in square brackets, D forms with d. Residues, ends and D or L forms follow the SMILES beside them. *: point of attachment. Asu = N[C@@H](CCCCCC(=O)O)C(=O)O; NHOH = ON*

Columns and labels:
[1] = target: T1, HDAC6 (Homo sapiens, UniProt Q9UBN7); assay: HDAC inhibition assay (fluorogenic, Ac-Leu-Gly-Lys(Ac)-AMC); format: biochemical; details: HDAC6, replicates
T1 construct: HDAC6 (full length, BPS Bioscience, cat. #: 50056); purchased BPS Bioscience 50056
T1 sequence (Q9UBN7 1-1215): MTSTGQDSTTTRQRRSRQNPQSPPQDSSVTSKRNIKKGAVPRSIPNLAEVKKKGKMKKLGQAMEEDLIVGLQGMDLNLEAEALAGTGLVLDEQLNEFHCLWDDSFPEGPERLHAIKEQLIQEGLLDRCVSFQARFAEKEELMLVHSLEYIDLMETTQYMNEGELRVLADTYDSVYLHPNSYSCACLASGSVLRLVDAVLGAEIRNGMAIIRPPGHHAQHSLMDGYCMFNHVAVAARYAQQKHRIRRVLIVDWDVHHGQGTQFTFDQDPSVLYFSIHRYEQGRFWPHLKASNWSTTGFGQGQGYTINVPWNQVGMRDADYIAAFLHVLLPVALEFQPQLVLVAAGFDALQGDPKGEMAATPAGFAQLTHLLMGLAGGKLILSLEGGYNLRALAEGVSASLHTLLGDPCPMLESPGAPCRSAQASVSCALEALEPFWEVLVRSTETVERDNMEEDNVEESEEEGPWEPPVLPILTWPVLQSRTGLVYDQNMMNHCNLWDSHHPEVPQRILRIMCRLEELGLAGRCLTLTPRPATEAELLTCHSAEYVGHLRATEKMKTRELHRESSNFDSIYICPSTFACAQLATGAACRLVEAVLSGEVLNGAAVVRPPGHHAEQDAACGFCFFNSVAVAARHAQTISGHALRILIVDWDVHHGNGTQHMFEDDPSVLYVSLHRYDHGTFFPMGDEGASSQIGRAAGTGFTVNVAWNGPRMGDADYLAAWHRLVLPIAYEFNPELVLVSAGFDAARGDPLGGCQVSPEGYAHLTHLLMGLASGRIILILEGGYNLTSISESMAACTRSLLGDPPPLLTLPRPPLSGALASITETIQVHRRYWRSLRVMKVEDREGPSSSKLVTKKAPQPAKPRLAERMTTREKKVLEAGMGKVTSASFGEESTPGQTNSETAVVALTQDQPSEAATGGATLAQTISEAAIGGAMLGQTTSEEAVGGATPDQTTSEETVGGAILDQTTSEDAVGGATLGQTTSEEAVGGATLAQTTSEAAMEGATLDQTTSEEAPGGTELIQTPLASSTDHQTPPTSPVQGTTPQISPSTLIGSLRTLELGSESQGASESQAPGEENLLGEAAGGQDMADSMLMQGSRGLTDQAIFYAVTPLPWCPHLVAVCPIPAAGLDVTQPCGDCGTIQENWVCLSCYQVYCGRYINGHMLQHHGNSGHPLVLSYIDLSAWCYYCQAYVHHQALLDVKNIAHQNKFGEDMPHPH

[2] = target: T2, HDAC8 (Homo sapiens, UniProt Q9BY41); assay: Recombinant HDAC µSPOT microarray binding assay;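 further: peptide µSPOT slides incubated with varying HDAC enzyme concentrations, imaged signal intensity fitted by four-parameter variable-slope regression, EC50 is enzyme concentration giving half-maximal binding, pH 7.4 HEPES buffer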
T2 construct: HDAC8 (full length, C-terminal His tag, BPS Bioscience, cat. #: 50008); purchased BPS Bioscience 50008
T2 sequence (Q9BY41 1-377): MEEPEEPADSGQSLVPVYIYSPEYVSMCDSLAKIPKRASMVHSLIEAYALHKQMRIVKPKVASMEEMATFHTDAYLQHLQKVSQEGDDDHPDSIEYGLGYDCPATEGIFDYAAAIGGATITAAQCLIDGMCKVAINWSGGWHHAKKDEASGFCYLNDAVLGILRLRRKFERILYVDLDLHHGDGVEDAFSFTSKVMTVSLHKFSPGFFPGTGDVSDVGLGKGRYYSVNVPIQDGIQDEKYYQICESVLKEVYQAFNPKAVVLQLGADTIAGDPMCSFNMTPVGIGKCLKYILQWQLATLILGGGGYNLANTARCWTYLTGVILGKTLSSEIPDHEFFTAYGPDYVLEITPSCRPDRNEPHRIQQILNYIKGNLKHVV

[3] = target: T2, HDAC8; assay: HDAC inhibition assay (fluorogenic, Ac-Leu-Gly-Lys(Tfa)-AMC); format: biochemical; details: for HDAC8 dose-response data (relative enzyme activity, replicate values), Fig. 6 + S. Fig. 10: two replicate columns per inhibitor; for HDAC8 dose-response data (relative enzyme activity), Fig. 6 + S. Fig. 10: duplicate columns
[4] = target: T3, HDAC3/NCoR2 (Homo sapiens, UniProt O15379); assay: HDAC inhibition assay (fluorogenic, Ac-Leu-Gly-Lys(Ac)-AMC); format: biochemical; details: for HDAC3 dose-response data (relative enzyme activity), Fig. 6 + S. Fig. 10: duplicate columns
T3 construct: HDAC3/NCoR2 (full length, C-terminal His tag, NCoR2 N-terminal GST tag); purchased BPS Bioscience 50003
T3 sequence (O15379 whole entry): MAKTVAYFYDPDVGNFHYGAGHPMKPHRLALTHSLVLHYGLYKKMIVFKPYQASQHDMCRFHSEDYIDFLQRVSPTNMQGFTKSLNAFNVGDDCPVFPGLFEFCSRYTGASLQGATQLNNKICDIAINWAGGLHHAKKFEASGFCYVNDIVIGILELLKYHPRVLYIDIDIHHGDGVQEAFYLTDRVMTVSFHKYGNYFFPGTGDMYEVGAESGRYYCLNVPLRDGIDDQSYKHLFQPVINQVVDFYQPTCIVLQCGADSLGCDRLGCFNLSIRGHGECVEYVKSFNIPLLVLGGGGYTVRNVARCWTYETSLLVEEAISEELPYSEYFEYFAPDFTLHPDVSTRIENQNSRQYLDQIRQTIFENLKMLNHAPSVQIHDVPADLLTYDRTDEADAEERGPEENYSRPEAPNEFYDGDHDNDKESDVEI
T3 sequence (Q9Y618 389-480 partner limits assumed): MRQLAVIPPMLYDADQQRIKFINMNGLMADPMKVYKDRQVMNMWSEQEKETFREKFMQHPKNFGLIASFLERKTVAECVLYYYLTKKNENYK

CC[C@H](C)[C@H](NC(=O)[C@@H](NC(=O)[C@H](CC(N)=O)NC(C)=O)C(C)C)C(=O)N[C@@H](CCCNC(=N)N)C(=O)N[C@@H](CC(=O)O)C(=O)N[C@@H](C)C(=O)N[C@H](C(=O)N[C@H](C(=O)N[C@@H](Cc1ccc(O)cc1)C(=O)N[C@H](C(=O)N[C@@H](CCC(=O)O)C(=O)N[C@@H](Cc1c[nH]cn1)C(=O)N[C@@H](C)C(=O)N[C@@H](CCCCCC(=O)NO)C(=O)N[C@@H](CCCNC(=N)N)C(=O)N[C@@H](CCCCN)C(=O)N[C@@H](Cc1c[nH]c2ccccc12)C(N)=O)[C@@H](C)O)[C@@H](C)O)C(C)C [17a] (Ac-NVIRDAVTYTEHA[Asu](NHOH)RKW-NH2)
residual enzymatic activity relative to control wells ([1]; log[inhibitor(M)] -4.30103): 0.85 and 0.89
residual enzymatic activity relative to control wells ([1]; log[inhibitor(M)] -5): 2.67 and 3.1
residual enzymatic activity relative to control wells ([1]; log[inhibitor(M)] -5.69897): 11.05 and 12.51
residual enzymatic activity relative to control wells ([1]; log[inhibitor(M)] -6.39794): 38.36 and 40.68
residual enzymatic activity relative to control wells ([1]; log[inhibitor(M)] -7.09691): 72.92 and 74.07
residual enzymatic activity relative to control wells ([1]; log[inhibitor(M)] -7.79588): 92.5 and 90.62
residual enzymatic activity relative to control wells ([1]; log[inhibitor(M)] -8.49485): 97.52 and 97.55
residual enzymatic activity relative to control wells ([1]; log[inhibitor(M)] -9.19382): 99.98 and 98.59
residual enzymatic activity relative to control wells ([1]; log[inhibitor(M)] -9.89279): 98.46 and 98.12
residual enzymatic activity relative to control wells ([1]; log[inhibitor(M)] -10.585): 98,71* and 97,59*
EC50 [2]: > 0.0251 µM
Ki [3]: 7.64 ± 0.06 µM
HDAC8 dose-response data (relative enzyme activity, replicate values), Fig. 6 + S. Fig. 10 ([3]; Inhibitor conc [M] -8.49485 (log)): 101.42 and 103.54
HDAC8 dose-response data (relative enzyme activity, replicate values), Fig. 6 + S. Fig. 10 ([3]; Inhibitor conc [M] -9.19382 (log)): 101.25 and 102.69
HDAC8 dose-response data (relative enzyme activity, replicate values), Fig. 6 + S. Fig. 10 ([3]; Inhibitor conc [M] given as -7.09691 (log)): 100.44 and 104.26
HDAC8 dose-response data (relative enzyme activity, replicate values), Fig. 6 + S. Fig. 10 ([3]; Inhibitor conc [M] given as -7.79588 (log)): 103.27 and 103.5
HDAC8 dose-response data (relative enzyme activity, replicate values), Fig. 6 + S. Fig. 10 ([3]; Inhibitor conc [M] given as -9.89279 (log)): 103.01 and 103.7
HDAC8 dose-response data (relative enzyme activity, replicate values), Fig. 6 + S. Fig. 10 ([3]; Inhibitor conc [M] given as -10.585 (log)): 99,9* and 101,68*
HDAC8 dose-response data (relative enzyme activity), Fig. 6 + S. Fig. 10 ([3]; Inhibitor conc [M] -4.30103): 25.68 and 25
HDAC8 dose-response data (relative enzyme activity), Fig. 6 + S. Fig. 10 ([3]; Inhibitor conc [M] -5): 60.57 and 62.81
HDAC8 dose-response data (relative enzyme activity), Fig. 6 + S. Fig. 10 ([3]; Inhibitor conc [M] -5.69897): 94.41 and 91.83
HDAC8 dose-response data (relative enzyme activity), Fig. 6 + S. Fig. 10 ([3]; Inhibitor conc [M] -6.39794): 100.36 and 103.01
Ki [4]: 0.0907 ± 0.0003 µM
HDAC3 dose-response data (relative enzyme activity), Fig. 6 + S. Fig. 10 ([4]; log[inhibitor(M)] -4.30103): 1.48 and 1.63
HDAC3 dose-response data (relative enzyme activity), Fig. 6 + S. Fig. 10 ([4]; log[inhibitor(M)] -5): 5.89 and 6.06
HDAC3 dose-response data (relative enzyme activity), Fig. 6 + S. Fig. 10 ([4]; log[inhibitor(M)] -5.69897): 20.29 and 20.52
